According to ChEMBL document CHEMBL3853274, “Ibogan, Aspidosperman, Vincamine, and Bisindole Alkaloids from a Malayan Tabernaemontana corymbosa: Iboga Alkaloids with C-20α Substitution” (J Nat Prod, 2016):

Legend:
Assay type in all cases: functional, cell-based
[1] = Cytotoxicity against vincristine-sensitive human KB cells after 72 hrs by MTT assay
[2] = Cytotoxicity against vincristine-resistant human KB/VJ300 cells after 72 hrs by MTT assay; settings: KB/VJ300, 72 h
[3] = Cytotoxicity against vincristine-resistant human KB/VJ300 cells in presence of 0.12 uM vincristine after 72 hrs by MTT assay; settings: KB/VJ300, 72 h

| Compound | IC50 [1] | IC50 [2] | IC50 [3] |
| --- | --- | --- | --- |
| C/C=C1/CN(C)[C@H]2Cc3c([nH]c4ccccc34)[C@@H](c3ccc4c5c([nH]c4c3)[C@@H]3C[C@H]4C[C@H]([C@@H](C)O)[C@@H]3N(CC5)C4)C[C@@H]1[C@@H]2C(=O)OC | 3300 nM | 2700 nM | 1300 nM |
| C/C=C1/CN(C)[C@H]2Cc3c([nH]c4ccccc34)[C@@H](c3ccc4c5c([nH]c4c3)[C@@H]3C[C@H]4C[C@H]([C@H](C)O)[C@@H]3N(CC5)C4)C[C@@H]1[C@@H]2C(=O)OC | 4600 nM | 4100 nM | 1800 nM |
| C/C=C1/CN(C)[C@H]2Cc3c([nH]c4ccccc34)[C@@H](c3ccc4c5c([nH]c4c3)[C@@H]3C[C@H]4C[C@H](CC)[C@@H]3N(CC5)C4)C[C@@H]1[C@@H]2C(=O)OC | 1200 nM | 1400 nM | 900 nM |
